# Molecular target: T1, Hormone-sensitive lipase (HSL) (Homo sapiens, UniProt Q05469)
# T1 sequence (Q05469 1-1076): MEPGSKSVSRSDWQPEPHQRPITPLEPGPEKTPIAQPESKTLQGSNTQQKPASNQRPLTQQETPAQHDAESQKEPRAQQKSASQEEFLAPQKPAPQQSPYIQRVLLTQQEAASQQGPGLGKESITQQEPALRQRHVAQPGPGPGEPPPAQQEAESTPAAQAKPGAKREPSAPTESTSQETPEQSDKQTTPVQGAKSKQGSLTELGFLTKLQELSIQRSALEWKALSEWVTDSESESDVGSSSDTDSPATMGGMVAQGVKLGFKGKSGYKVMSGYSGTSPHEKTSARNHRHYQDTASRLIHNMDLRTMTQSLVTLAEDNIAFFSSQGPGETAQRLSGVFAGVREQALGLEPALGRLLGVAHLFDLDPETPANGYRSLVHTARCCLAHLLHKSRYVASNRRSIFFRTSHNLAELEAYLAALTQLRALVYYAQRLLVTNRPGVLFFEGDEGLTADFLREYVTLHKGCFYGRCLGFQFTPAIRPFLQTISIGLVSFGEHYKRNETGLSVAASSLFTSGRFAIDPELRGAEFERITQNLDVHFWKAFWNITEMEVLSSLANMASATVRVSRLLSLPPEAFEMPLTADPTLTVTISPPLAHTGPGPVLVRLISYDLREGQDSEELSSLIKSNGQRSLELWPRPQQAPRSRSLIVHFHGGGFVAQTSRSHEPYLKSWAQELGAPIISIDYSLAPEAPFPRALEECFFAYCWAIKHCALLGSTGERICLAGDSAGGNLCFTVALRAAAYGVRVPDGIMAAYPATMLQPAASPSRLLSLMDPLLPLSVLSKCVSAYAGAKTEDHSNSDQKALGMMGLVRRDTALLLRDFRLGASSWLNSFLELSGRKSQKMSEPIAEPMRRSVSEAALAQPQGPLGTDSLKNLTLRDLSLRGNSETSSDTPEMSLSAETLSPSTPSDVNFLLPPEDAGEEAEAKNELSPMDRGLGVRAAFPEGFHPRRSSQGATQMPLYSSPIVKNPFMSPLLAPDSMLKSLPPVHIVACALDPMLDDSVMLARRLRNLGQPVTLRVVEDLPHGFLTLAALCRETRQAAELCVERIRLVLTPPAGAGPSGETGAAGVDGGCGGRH
# Test: Hormone-sensitive lipase (HSL) inhibition assay, 3H-labeled triolein or MOME substrate
# Format: biochemical
# Details: read-out: HSL inhibition (IC50)
# How it was run: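 HSL enzyme (0.12 mg/ml stock) preincubated with inhibitor in PED-BSA, then given sonicated PC:PI-emulsified ³H-triolein or ³H-MOME in 0.1 M potassium phosphate pH 7 with BSA. 30 min at 37 °C; released radiolabelled fatty acid extracted in methanol/chloroform/heptane at pH 10.5 and scintillation counted.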
row,SMILES,IC50
1,"CC(C)(C)OC(=O)Nc1ccc(OC(=O)NN2CCc3ccccc3C2)cc1 [Example 17, (3,4-Dihydro-1H-isoquinolin-2-yl)-carbamic Acid 4-tert-butoxycarbonylamino-phenyl Ester]",3 nM
2,"O=C(NN1CCc2ccccc2C1)Oc1ccc(Cl)cc1 [Example 6, (3,4-Dihydro-1H-isoquinolin-2-yl)-carbamic acid 4-chloro-phenyl Ester]",19 nM
3,"CC1Cc2ccccc2CN1NC(=O)Oc1ccc(Cl)cc1 (stereo not drawn) [Example 23, (3-Methyl-3,4-dihydro-1H-isoquinolin-2-yl)-carbamic Acid 4-chloro-phenyl Ester]",40 nM

# — patent US20020082254A1, “Compounds for treating disorders where a decreased level of plasma FFA is desired” (priority 2000, published 2002)
